The results in this text go back to patent US20240342292A1, “Compounds for the Degradation of EGFR Kinase” (BeiGene Switzerland GmbH, priority 2021, published 2024).

In one test the target is T1, L858R/T790M/C797S EGFR (Homo sapiens, UniProt P00533, C797S/L858R/T790M).
T1 construct: expressed in transfected cells; host or cells: H1975 clone #25 (lentiviral over-expression, endogenous EGFR knocked out by sgRNA)
Kind of test: EGFR degradation HTRF assay in H1975-clone #25 (LTC) cells. The class given is cell-based. Conditions: 16h treatment; for DC50: H1975 # 25-LTC (L858R/T790M/C797S), HTRF; for Dmax: NCI-H1975, H1975 # 25-LTC (L858R/T790M/C797S), maximum percentage of degradation. Put shortly:
(§1)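 Each homozygous H1975 clone was dosed for 16 h at 37 °C with an 8-dose, 5-fold series (top 10 uM, 0.2% DMSO). An HTRF antibody pair then measured EGFR in lysates, and a sigmoidal fit of percent inhibition gave DC50.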

Another test concerns Del19/T790M/C797S EGFR. Kind of test: EGFR degradation HTRF assay in H1975-clone #28 (DTC) cells. It is filed as cell-based. Conditions: H1975 # 28 DTC (Del19/T790M/C797S), 16h treatment; for DC50: HTRF; for Dmax (%): maximum percentage of degradation. Put shortly: as §1

T1 sequence (P00533 25-1210 T790M/C797S/L858R): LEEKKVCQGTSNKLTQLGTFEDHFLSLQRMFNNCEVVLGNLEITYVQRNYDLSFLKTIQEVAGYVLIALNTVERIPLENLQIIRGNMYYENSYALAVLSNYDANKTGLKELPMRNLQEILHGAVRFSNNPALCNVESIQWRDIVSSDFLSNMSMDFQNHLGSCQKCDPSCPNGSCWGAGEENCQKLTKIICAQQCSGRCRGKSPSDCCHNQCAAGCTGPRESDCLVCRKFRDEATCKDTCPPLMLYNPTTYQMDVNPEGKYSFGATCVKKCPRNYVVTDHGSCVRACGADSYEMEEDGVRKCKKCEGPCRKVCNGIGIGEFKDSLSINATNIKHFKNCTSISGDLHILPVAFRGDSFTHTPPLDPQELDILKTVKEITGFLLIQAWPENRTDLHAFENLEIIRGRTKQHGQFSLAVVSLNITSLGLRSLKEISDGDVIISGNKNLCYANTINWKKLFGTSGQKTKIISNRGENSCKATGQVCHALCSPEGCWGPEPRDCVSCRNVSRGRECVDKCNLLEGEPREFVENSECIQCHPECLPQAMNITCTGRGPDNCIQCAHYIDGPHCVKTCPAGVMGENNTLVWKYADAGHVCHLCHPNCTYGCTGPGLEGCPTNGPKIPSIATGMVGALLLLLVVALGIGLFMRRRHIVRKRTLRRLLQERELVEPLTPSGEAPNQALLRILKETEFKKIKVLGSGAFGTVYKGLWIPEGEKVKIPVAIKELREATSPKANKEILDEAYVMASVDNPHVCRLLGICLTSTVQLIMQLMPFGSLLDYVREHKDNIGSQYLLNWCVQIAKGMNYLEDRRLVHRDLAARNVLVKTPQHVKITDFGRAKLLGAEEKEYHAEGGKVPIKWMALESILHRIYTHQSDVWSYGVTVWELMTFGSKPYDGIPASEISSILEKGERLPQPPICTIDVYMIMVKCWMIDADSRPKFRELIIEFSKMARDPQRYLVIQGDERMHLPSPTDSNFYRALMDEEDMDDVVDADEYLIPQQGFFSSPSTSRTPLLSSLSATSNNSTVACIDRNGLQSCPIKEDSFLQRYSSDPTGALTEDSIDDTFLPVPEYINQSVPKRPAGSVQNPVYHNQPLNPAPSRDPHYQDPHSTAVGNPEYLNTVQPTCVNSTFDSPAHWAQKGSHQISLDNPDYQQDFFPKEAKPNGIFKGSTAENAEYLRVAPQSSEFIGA

`Cc1cc2cc(n1)-c1cnn(C)c1OCCC[C@@H](C)CN1/C(=N/C2=O)Nc2ccc(C(=O)N(C)CCN3CCN(c4cc(F)c([C@H]5CCC(=O)NC5=O)c(F)c4)CC3)cc21` [Example 280, (R,E)-N-(2-(4-(4-((R)-2,6-dioxopiperidin-3-yl)-3,5-difluorophenyl)piperazin-1-yl)ethyl)-N,1^1,2^6,7-tetramethyl-3-oxo-5^2,5^3-dihydro-1^1H,5^1H-11-oxa-4-aza-5(2,1)-benzo[d]imidazola-2(2,4)-pyridina-1(4,5)-pyrazolacycloundecaphane-5^6-carboxyamide]: at L858R/T790M/C797S EGFR, the DC50 came out at 0.44 nM and the Dmax was 88.5%. Further, in the test on Del19/T790M/C797S EGFR, the DC50 is 0.657 nM and the “Dmax (%)” value is reported as 77.24%.

At L858R/T790M/C797S EGFR, `Cc1cc2cc(n1)-c1cnn(C)c1OCCC[C@@H](C)CN1/C(=N/C2=O)Nc2ccc(C3CCN(C(=O)C4CN(c5cc(F)c([C@H]6CCC(=O)NC6=O)c(F)c5)C4)CC3)cc21` [Example 158, (R)-3-(2,6-difluoro-4-(3-(4-((R,E)-1^1,2^6,7-trimethyl-3-oxo-5^2,5-dihydro-1^1H,5^1H-11-oxa-4-aza-5(2, 1)-benzo[d]imidazola-2(2,4)-pyridina-1(4,5)-pyrazolacycloundecaphane-5^6-yl)piperidine-1-carbonyl)azetidin-1-yl)phenyl)piperidine-2,6-dione] registered a DC50 of 0.852 nM and a maximal degradation (Dmax) of 82.2%. In the test on Del19/T790M/C797S EGFR, it took 0.868 nM to reach half-maximal degradation (DC50) and the “Dmax (%)” value is listed as 72.14%.

On L858R/T790M/C797S EGFR, `Cc1cc2cc(n1)-c1cnn(C)c1OCCC[C@@H](C)CN1/C(=N/C2=O)Nc2ccc(N3CCC(C(=O)N4CC(Oc5cc(F)c([C@H]6CCC(=O)NC6=O)c(F)c5)C4)CC3)cc21` [Example 403, (R)-3-(2,6-difluoro-4-((1-(1-((R,E)-1^1,2^6,7-trimethyl-3-oxo-5^2,5^3-dihydro-1^1H,5^1H-11-oxa-4-aza-5(2,1)-benzo[d]imidazola-2(2,4)-pyridina-1(4,5)-pyrazolacycloundecaphane-5^6-yl)piperidine-4-carbonyl)azetidin-3-yl)oxy)phenyl)piperidine-2,6-dione] showed a 50% degradation concentration (DC50) of 1.07 nM and a Dmax of 87.5%. Also, in the test with Del19/T790M/C797S EGFR, the DC50 stood at 0.857 nM and the “Dmax (%)” value stood at 82.98%.

Regarding `COC[C@@H]1CN(c2ccc3c(c2)N2C[C@H](C)CCCOc4c(cnn4C)-c4cc(cc(C)n4)C(=O)/N=C/2N3)CCN1C1CCN(c2cc(F)c([C@H]3CCC(=O)NC3=O)c(F)c2)CC1` [Example 397, (R)-3-(2,6-difluoro-4-(4-((S)-2-(methoxymethyl)-4-((R,E)-1^1,2^6,7-trimethyl-3-oxo-5^2,5^3-dihydro-1^1H,5^1H-1i-oxa-4-aza-5(2,1)-benzo[d]imidazola-2(2,4)-pyridina-1(4,5)-pyrazolacycloundecaphane-5-yl)piperazin-1-yl)piperidin-1-yl)phenyl)piperidine-2,6-dione], at L858R/T790M/C797S EGFR, it took 2.01 nM to reach half-maximal degradation (DC50) and the maximal degradation (Dmax) was 88.3%. Moreover, in the test with Del19/T790M/C797S EGFR, the half-maximal degradation concentration (DC50) was found to be 2.13 nM and the “Dmax (%)” value was found to be 76.68%.

With `Cc1cc2cc(n1)-c1cnn(C)c1OCCC[C@@H](C)CN1/C(=N/C2=O)Nc2ccc(N3CCN(C4CCN(c5cc(F)c([C@H]6CCC(=O)NC6=O)c(F)c5)CC4)[C@@H](CC#N)C3)cc21` [Example 452, 2-((S)-1-(1-(4-((R)-2,6-dioxopiperidin-3-yl)-3,5-difluorophenyl)piperidin-4-yl)-4-((R,E)-1^1,2^6,7-trimethyl-3-oxo-5^2,5^3-dihydro-1^1H,5^1H-11-oxa-4-aza-5(2,1)-benzo[d]imidazola-2(2,4)-pyridina-1(4,5)-pyrazolacycloundecaphane-5^6-yl)piperazin-2-yl)acetonitrile], at L858R/T790M/C797S EGFR, half-maximal degradation (DC50) was put at 0.98 nM and the Dmax turned out to be 78.5%. Further, in the test on Del19/T790M/C797S EGFR, half-maximal degradation (DC50) was put at 1.29 nM and the “Dmax (%)” value worked out at 75.73%.

On L858R/T790M/C797S EGFR, `Cc1cc2cc(n1)-c1cnn(C)c1OCCC[C@@H](C)CN1/C(=N/C2=O)Nc2ccc(CN(C)[C@@H]3CCCN(C(=O)[C@@H]4CCN(c5cc(F)c([C@H]6CCC(=O)NC6=O)c(F)c5)C4)C3)cc21` [Example 318, (R)-3-(2,6-difluoro-4-((R)-3-((R)-3-(methyl(((R,E)-1^1,2^6,7-trimethyl-3-oxo-5^2,53-dihydro-1^1H,5^1H-11-oxa-4-aza-5(2,1)-benzo[d]imidazola-2(2,4)-pyridina-1(4,5)-pyrazolacycloundecaphane-5^6-yl)methyl)amino)piperidine-1-carbonyl)pyrrolidin-1-yl)phenyl)piperidine-2,6-dione] yielded a DC50 of 1.33 nM and a Dmax of 76.4%. In the test on Del19/T790M/C797S EGFR, the half-maximal degradation concentration (DC50) is 0.995 nM and the “Dmax (%)” value was determined as 67.67%.

For the compound `Cc1cc2cc(n1)-c1cnn(C)c1OCCC[C@@H](C)CN1/C(=N/C2=O)Nc2ccc(C(=O)N(C)C3CCN(CCc4cccc5c4C4(CC4)C(=O)N5C4CCC(=O)NC4=O)CC3)cc21` (stereo partly drawn) [Example 316, (7R,E)-N-(1-(2-(1′-(2,6-dioxopiperidin-3-yl)-2′-oxospiro[cyclopropane-1,3′-indolin]-4′-yl)ethyl)piperidin-4-yl)-N,1^1,2^6,7-tetramethyl-3-oxo-5^2,5′-dihydro-1^1H,5^1H-11-oxa-4-aza-5(2,1)-benzo[d]imidazola-2(2,4)-pyridina-1(4,5)-pyrazolacycloundecaphane-5^6-carboxamide], on L858R/T790M/C797S EGFR, the DC50 amounted to 0.655 nM and the greatest degradation seen (Dmax) was found to be 77.9%. Besides, in the test with Del19/T790M/C797S EGFR, half-maximal degradation (DC50) was put at 0.925 nM and the “Dmax (%)” value is recorded as 47.67%.

Regarding `Cc1cc2cc(n1)-c1cnn(C)c1OCCC[C@@H](C)CN1/C(=N/C2=O)Nc2ccc(C(=O)N(C)C3C[C@H]4CN(CCc5cc(F)c([C@H]6CCC(=O)NC6=O)c(F)c5)C[C@@H]4C3)cc21` [Example 293, (R,E)-N—((3aR,6aR)-2-(4-((R)-2,6-dioxopiperidin-3-yl)-3,5-difluorophenethyl)octahydrocyclopenta[c]pyrrol-5-yl)-N,1^1,2^6,7-tetramethyl-3-oxo-5^2,5^1-dihydro-1^1H,5^1H-11-oxa-4-aza-5(2,1)-benzo[d]imidazola-2(2,4)-pyridina-1(4,5)-pyrazolacycloundecaphane-5^6-carboxamide], on L858R/T790M/C797S EGFR, half-maximal degradation (DC50) was put at 1.56 nM and the Dmax amounted to 86.3%. In addition, in the test on Del19/T790M/C797S EGFR, the DC50 was determined as 0.997 nM and the “Dmax (%)” value is reported as 75.49%.

Turning to `Cc1cc2cc(n1)-c1cnn(C)c1OCCC[C@@H](C)CN1/C(=N/C2=O)Nc2ccc(C(=O)NC3CCN(CCc4cc(F)c([C@H]5CCC(=O)NC5=O)c(F)c4)CC3)cc21` [Example 242, (R,E)-N-(1-(4-((R)-2,6-dioxopiperidn-3-yl)-3,5-difluorophenethyl)piperidin-4-yl)-1^1,2^6,7-trimethyl-3-oxo-5^2,5′-dihydro-1^1H,5^1H-li-oxa-4-aza-5(2,1)-benzo[d]imidazola-2(2,4)-pyridina-1(4,5)-pyrazolacycloundecaphane-5^6-carboxamide], at L858R/T790M/C797S EGFR, it took 0.321 nM to reach half-maximal degradation (DC50) and the Dmax came to 93.2%. Besides, in the test with Del19/T790M/C797S EGFR, the DC50 was 0.352 nM and the “Dmax (%)” value turned out to be 88.18%.

`Cc1cc2cc(n1)-c1cnn(C)c1OCCC[C@@H](C)CN1/C(=N/C2=O)Nc2ccc(N3CCN(CC4CN(c5cc(F)c([C@H]6CCC(=O)NC6=O)c(F)c5)C4)CC3)cc21` [Example 321, (R)-3-(2,6-difluoro-4-(3-((4-((R,E)-1^1,2^6,7-trimethyl-3-oxo-5^2,5^3-dihydro-1^1H,5^1H-11-oxa-4-aza-5(2,1)-benzo[d]imidazola-2(2,4)-pyridina-1(4,5)-pyrazolacycloundecaphane-5^6-yl)piperazin-1-yl)methyl)azetidin-1-yl)phenyl)piperidine-2,6-dione]: at L858R/T790M/C797S EGFR, the DC50 was 1.17 nM and the Dmax came to 88.2%. For the same compound, in the test on Del19/T790M/C797S EGFR, the DC50 was 1.18 nM and the “Dmax (%)” value was 73.52%.

As to `Cc1cc2cc(n1)-c1cnn(C)c1OCCC[C@@H](C)CN1/C(=N/C2=O)Nc2ccc(N3CCN(C4CCN(c5cnc([C@H]6CCC(=O)NC6=O)c(F)c5)CC4)CC3=O)cc21` (single isomer, unassigned) [Example 460], at L858R/T790M/C797S EGFR, the DC50 was determined as 0.431 nM and the greatest degradation seen (Dmax) was 89.6%. In the test with Del19/T790M/C797S EGFR, the DC50 came to 0.629 nM and the “Dmax (%)” value turned out to be 75.27%.

At L858R/T790M/C797S EGFR, `Cc1cc2cc(n1)-c1cnn(C)c1OCCC[C@@H](C)CN1/C(=N/C2=O)Nc2ccc(C(=O)N(C)C3CC4CCCC(C3)N4CCc3cc(F)c([C@H]4CCC(=O)NC4=O)c(F)c3)cc21` (stereo partly drawn) [Example 266, (7R,E)-N-(9-(4-((R)-2,6-dioxopiperidin-3-yl)-3,5-difluorophenethyl)-9-azabicyclo[3.3.1]nonan-3-yl) -N,1^1,2^6,7-tetramethyl-3-oxo-5^2,5^3-dihydro-1^1H,5^1H-11-oxa-4-aza-5(2,1)-benzo[d]imidazola-2(2,4)-pyridina-1(4,5)-pyrazolacycloundecaphane-5^6-carboxamide] registered a DC50 of 1.51 nM and a Dmax of 81.4%. Besides, in the test on Del19/T790M/C797S EGFR, the half-maximal degradation concentration (DC50) was determined as 0.65 nM and the “Dmax (%)” value was 75.93%.

On to `Cc1cc2cc(n1)-c1cnn(C)c1OCCC[C@@H](C)CN1/C(=N/C2=O)Nc2ccc(N3CCN(C4CCN(c5cc(F)c([C@H]6CCC(=O)NC6=O)c(F)c5)CC4)C[C@H]3C)cc21` [Example 384, (R)-3-(2,6-difluoro-4-(4-((R)-3-methyl-4-((R,E)-1^1,2^6,7-trimethyl-3-oxo-5^2,5^3-dihydro-1^1H,5^1H-11-oxa-4-aza-5(2,1)-benzo[d]imidazola-2(2,4)-pyridina-1(4,5)-pyrazolacycloundecaphane-5^6-yl)piperazin-1-yl)piperidin-1-yl)phenyl)piperidine-2,6-dione], for which, on L858R/T790M/C797S EGFR, the half-maximal degradation concentration (DC50) came to 1.67 nM and the Dmax was 87.7%. In the test on Del19/T790M/C797S EGFR, the DC50 worked out at 1.5 nM and the “Dmax (%)” value is 75.83%.
